Measured values taken from US7741253B2, “Methods and compositions for crosslinking polymers with boronic acids” (Halliburton Energy Services, Inc., priority 2004, dated 2010).
Values belong to the compound of their own block, whether it stands above or below them.

Assay: pH titration (method of Wiskur et al.)
Type: physicochemical
Procedure: The exemplary boronic acid crosslinking agent prepared as described above was compared to 1,4-phenylene diboronic acid and boric acid using a pH titration that was performed according to the method of S. L. Wiskur, et al., Org.

pH (NaOH 0 μL): 3.32 | pH (NaOH 1 μL): 3.47 | pH (NaOH 2 μL): 3.67 | pH (NaOH 3 μL): 4.07 | pH (NaOH 4 μL): 5.66 | pH (NaOH 5 μL): 6.6 | pH (NaOH 6 μL): 6.97 | pH (NaOH 7 μL): 7.18 | pH (NaOH 8 μL): 7.33 | pH (NaOH 9 μL): 7.44 | pH (NaOH 10 μL): 7.53 | pH (NaOH 11 μL): 7.62 | pH (NaOH 12 μL): 7.69 | pH (NaOH 13 μL): 7.76 | pH (NaOH 14 μL): 7.82 | pH (NaOH 15 μL): 7.88 | pH (NaOH 16 μL): 7.94 | pH (NaOH 17 μL): 8 | pH (NaOH 18 μL): 8.05 | pH (NaOH 19 μL): 8.11 | pH (NaOH 20 μL): 8.17 | pH (NaOH 21 μL): 8.21 | pH (NaOH 22 μL): 8.25 | pH (NaOH 23 μL): 8.39 | pH (NaOH 24 μL): 8.46 | pH (NaOH 25 μL): 8.51 | pH (NaOH 26 μL): 8.57 | pH (NaOH 27 μL): 8.64 | pH (NaOH 28 μL): 8.7 | pH (NaOH 29 μL): 8.76 | pH (NaOH 30 μL): 8.82 | pH (NaOH 31 μL): 8.96 | pH (NaOH 32 μL): 9.02 | pH (NaOH 33 μL): 9.09 | pH (NaOH 34 μL): 9.15 | pH (NaOH 35 μL): 9.21 | pH (NaOH 36 μL): 9.26 | pH (NaOH 37 μL): 9.32 | pH (NaOH 38 μL): 9.38 | pH (NaOH 39 μL): 9.43 | pH (NaOH 40 μL): 9.47 | pH (NaOH 41 μL): 9.51 | pH (NaOH 42 μL): 9.56 | pH (NaOH 43 μL): 9.6 | pH (NaOH 44 μL): 9.64 | pH (NaOH 45 μL): 9.68 | pH (NaOH 46 μL): 9.71 | pH (NaOH 47 μL): 9.75 | pH (NaOH 48 μL): 9.79 | pH (NaOH 49 μL): 9.82 | pH (NaOH 50 μL): 9.86 | pH (NaOH 51 μL): 9.89 | pH (NaOH 52 μL): 9.93 | pH (NaOH 53 μL): 9.96 | pH (NaOH 54 μL): 10 | pH (NaOH 55 μL): 10.03 | pH (NaOH 56 μL): 10.06 | pH (NaOH 57 μL): 10.1 | pH (NaOH 58 μL): 10.13 | pH (NaOH 59 μL): 10.16 | pH (NaOH 60 μL): 10.19 | pH (NaOH 61 μL): 10.23 | pH (NaOH 62 μL): 10.26 | pH (NaOH 63 μL): 10.28 | pH (NaOH 64 μL): 10.3 | pH (NaOH 65 μL): 10.33 | pH (NaOH 66 μL): 10.33 | pH (NaOH 67 μL): 10.37 | pH (NaOH 68 μL): 10.39 | pH (NaOH 69 μL): 10.42 | pH (NaOH 70 μL): 10.44 | pH (NaOH 71 μL): 10.47 | pH (NaOH 72 μL): 10.49 | pH (NaOH 73 μL): 10.49 | pH (NaOH 74 μL): 10.53 | pH (NaOH 75 μL): 10.55 | pH (NaOH 76 μL): 10.55 | pH (NaOH 77 μL): 10.57
SMILES: OB(O)c1ccc(B(O)O)cc1 [1,4-phenylene diboronic acid]

pH (NaOH 0 μL): 3.03 | pH (NaOH 1 μL): 3.13 | pH (NaOH 2 μL): 3.25 | pH (NaOH 3 μL): 3.4 | pH (NaOH 4 μL): 3.64 | pH (NaOH 5 μL): 4.06 | pH (NaOH 6 μL): 6.08 | pH (NaOH 7 μL): 7.58 | pH (NaOH 8 μL): 7.91 | pH (NaOH 9 μL): 8.11 | pH (NaOH 10 μL): 8.26 | pH (NaOH 11 μL): 8.39 | pH (NaOH 12 μL): 8.49 | pH (NaOH 13 μL): 8.59 | pH (NaOH 14 μL): 8.67 | pH (NaOH 15 μL): 8.74 | pH (NaOH 16 μL): 8.82 | pH (NaOH 17 μL): 8.89 | pH (NaOH 18 μL): 8.96 | pH (NaOH 19 μL): 9.03 | pH (NaOH 20 μL): 9.1 | pH (NaOH 21 μL): 9.17 | pH (NaOH 22 μL): 9.25 | pH (NaOH 23 μL): 9.31 | pH (NaOH 24 μL): 9.38 | pH (NaOH 25 μL): 9.47 | pH (NaOH 26 μL): 9.55 | pH (NaOH 27 μL): 9.65 | pH (NaOH 28 μL): 9.74 | pH (NaOH 29 μL): 9.85 | pH (NaOH 30 μL): 9.95 | pH (NaOH 31 μL): 10.05 | pH (NaOH 32 μL): 10.13 | pH (NaOH 33 μL): 10.22 | pH (NaOH 34 μL): 10.29 | pH (NaOH 35 μL): 10.35 | pH (NaOH 36 μL): 10.4 | pH (NaOH 37 μL): 10.45 | pH (NaOH 38 μL): 10.49 | pH (NaOH 39 μL): 10.53 | pH (NaOH 40 μL): 10.56 | pH (NaOH 41 μL): 10.59 | pH (NaOH 42 μL): 10.62 | pH (NaOH 43 μL): 10.65 | pH (NaOH 44 μL): 10.68 | pH (NaOH 45 μL): 10.7 | pH (NaOH 46 μL): 10.71 | pH (NaOH 47 μL): 10.75 | pH (NaOH 48 μL): 10.77 | pH (NaOH 49 μL): 10.78 | pH (NaOH 50 μL): 10.78 | pH (NaOH 51 μL): 10.81 | pH (NaOH 52 μL): 10.82 | pH (NaOH 53 μL): 10.82 | pH (NaOH 54 μL): 10.85 | pH (NaOH 55 μL): 10.85 | pH (NaOH 56 μL): 10.87 | pH (NaOH 57 μL): 10.87 | pH (NaOH 58 μL): 10.89 | pH (NaOH 59 μL): 10.89 | pH (NaOH 60 μL): 10.91 | pH (NaOH 61 μL): 10.92 | pH (NaOH 62 μL): 10.92 | pH (NaOH 63 μL): 10.92 | pH (NaOH 64 μL): 10.95 | pH (NaOH 65 μL): 10.95 | pH (NaOH 66 μL): 10.95 | pH (NaOH 67 μL): 10.97 | pH (NaOH 68 μL): 10.97 | pH (NaOH 69 μL): 11 | pH (NaOH 70 μL): 11 | pH (NaOH 71 μL): 11 | pH (NaOH 72 μL): 11 | pH (NaOH 73 μL): 11 | pH (NaOH 74 μL): 11 | pH (NaOH 75 μL): 11.03 | pH (NaOH 76 μL): 11.03 | pH (NaOH 77 μL): 11.03
SMILES: OB(O)O [Boric acid]
